Tested on: subjects with psoriasis
Test: erythema resolution in psoriasis plaques after topical administration
Type: in vivo, human
Conditions: 0.5% by weight in cosmetic composition, topical twice daily for one week; two subjects, elbows; observed day 7
Method: In another method, an effective amount of hypoestoxide crude extract, hypoestes rosea dried leaf powder or a compound of formula I, in a cosmetic composition or in isolation, is applied to the host's skin to alleviate psoriasis. In a preferred embodiment, 0.5% by weight of pure hypoestoxide in a cosmetic composition was applied to two subjects with psoriasis. Topical administration was performed twice daily for one week at the subjects' job sites. Subjects had crusted erythematous plaques on their elbows. The cosmetic composition consisted of the following ingredients: multi-fruit complex, cetearyl alcohol and ceteareth 20, glyceryl stearate, cetyl alcohol, tocopherol, vitamin A palmatate, allantoin, lanolin, ascorbic acid, botanical extract, xanthan gum, ceteth-20 and propylparaben. Erythema resolution was noted by observation of the subjects' plaques on day 7.

C=C1C(=O)C[C@H]2C[C@@H]3O[C@@]3(C)CC[C@@H]3O[C@@]3(C)C[C@@H](OC(C)=O)[C@H]1C2(C)C [hypoestoxide]
Erythema resolution of crusted erythematous plaques: significant erythema resolution

Reference: patent US20050112071A1, “Hypoestoxides, derivatives, agonists and crude extracts thereof for use in cosmetic compositions” (PARAQUEST, INC., priority 2003, published 2005)
